ChEMBL document CHEMBL1157923, “Probing the cannabinoid CB1/CB2 receptor subtype selectivity limits of 1,2-diarylimidazole-4-carboxamides by fine-tuning their 5-substitution pattern” (Bioorg Med Chem Lett, 2010)

How the values were obtained:
[1] = organism: Homo sapiens; test: Selectivity ratio Ki for human CB2 receptor to Ki for human CB1 receptor
[2] = target: Cannabinoid receptor 2 (Homo sapiens, UniProt P34972); test: Displacement of [3H]CP-55940 from human CB2 receptor expressed in CHO cells; assay type: cell-based
Cannabinoid receptor 2, sequence (P34972 whole entry): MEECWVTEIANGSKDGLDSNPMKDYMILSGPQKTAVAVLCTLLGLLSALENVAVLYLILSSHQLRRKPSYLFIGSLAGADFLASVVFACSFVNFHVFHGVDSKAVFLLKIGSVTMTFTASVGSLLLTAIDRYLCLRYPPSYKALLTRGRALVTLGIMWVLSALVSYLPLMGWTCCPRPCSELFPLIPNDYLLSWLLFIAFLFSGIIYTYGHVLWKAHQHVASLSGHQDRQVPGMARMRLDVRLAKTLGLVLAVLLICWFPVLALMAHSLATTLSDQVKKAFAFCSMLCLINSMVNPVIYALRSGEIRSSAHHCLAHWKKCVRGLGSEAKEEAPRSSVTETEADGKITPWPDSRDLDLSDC

[3] = target: Cannabinoid receptor 1 (Homo sapiens, UniProt P21554); test: biochemical; assay type: cell-based, CHO
Cannabinoid receptor 1, sequence (P21554 whole entry): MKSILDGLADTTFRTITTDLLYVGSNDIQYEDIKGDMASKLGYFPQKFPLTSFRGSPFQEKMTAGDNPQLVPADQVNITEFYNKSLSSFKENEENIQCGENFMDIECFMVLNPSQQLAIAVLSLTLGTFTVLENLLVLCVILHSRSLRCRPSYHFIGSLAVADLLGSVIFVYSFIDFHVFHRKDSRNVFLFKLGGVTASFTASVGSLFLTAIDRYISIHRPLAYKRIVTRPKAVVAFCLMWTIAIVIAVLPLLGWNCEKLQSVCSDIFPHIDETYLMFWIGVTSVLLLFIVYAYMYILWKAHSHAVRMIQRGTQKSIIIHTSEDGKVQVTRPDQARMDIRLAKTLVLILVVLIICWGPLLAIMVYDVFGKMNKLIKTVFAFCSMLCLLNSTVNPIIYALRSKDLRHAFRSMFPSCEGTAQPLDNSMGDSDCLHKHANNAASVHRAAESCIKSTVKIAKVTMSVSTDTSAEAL

[4] = Lipophilicity log P of compound at pH 7.4 by RP-HPLC analysis; assay type: physicochemical; details: buffer
[5] = tested on: Rattus norvegicus; test: Inhibition of CP-55940-induced hypotension in po dosed anaesthetized rat; assay type: functional; details: read-out: ID50 (the source's name)
[6] = tested on: LLC-PK1; test: Efflux ratio of permeability in pig LLC-PK1 cells expressing human MDR1 assessed as ratio of bottom to top transport over top to bottom transport; assay type: ADME, cell-based, Sus scrofa
[7] = Terminal half life in non obese human; assay type: ADME, organism-based; details: in vivo, read-out: beta t1/2 (converted)

| Ratio IC50 [1] | Compound | Ki [2] | Ki [3] | also measured |
| --- | --- | --- | --- | --- |
| 53 | N#Cc1c(C(=O)NN2CCCCC2)nc(-c2ccc(Cl)cc2Cl)n1-c1ccc(Cl)cc1 | – | – | – |
| 181 | O=C(NN1CCCCC1)c1nc(-c2ccc(Cl)cc2Cl)n(-c2ccc(Cl)cc2)c1I | 1810 nM | 10 nM | – |
| 20 | Cc1c(C(=O)NN2CCCCC2)nc(-c2ccc(Cl)cc2Cl)n1-c1ccc(Cl)cc1 | – | – | – |
| – | CSc1c(C(=O)NN2CCCCC2)nn(-c2ccc(Cl)cc2Cl)c1-c1ccc(Cl)cc1 | 804 nM | 13 nM | ED50 [5]: 1.5 mg/kg |
| 27 | CSc1c(C(=O)NN2CCCCCC2)nc(-c2ccc(Cl)cc2Cl)n1-c1ccc(Cl)cc1 | 325 nM | 12 nM | – |
| – | C[S+]([O-])c1c(C(=O)NN2CCCCC2)nc(-c2ccc(Cl)cc2Cl)n1-c1ccc(Cl)cc1 (stereo in doubt; 12) [listing 1 of 2 here] | – | 49 nM | Ki ([2]; cho): > 1000 nM; Ratio [6]: 7.7; logP [4]: 3.7; ED50 [5]: > 30 mg/kg |
| > 112 | CSc1c(C(=O)NN2CCCC2)nc(-c2ccc(Cl)cc2Cl)n1-c1ccc(Cl)cc1 | – | 8.9 nM | – |
| – | C[S+]([O-])c1c(C(=O)NN2CCCCC2)nc(-c2ccc(Cl)cc2Cl)n1-c1ccc(Cl)cc1 (single isomer, unassigned; (+)) [listing 1 of 2 here] | – | 12.9 nM | Ki ([2]; cho): > 1000 nM |
| > 19 | CCSc1c(C(=O)NN2CCCCC2)nc(-c2ccc(Cl)cc2Cl)n1-c1ccc(Cl)cc1 | > 1000 nM | 51 nM | – |
| – | C[S+]([O-])c1c(C(=O)NN2CCCCC2)nc(-c2ccc(Cl)cc2Cl)n1-c1ccc(Cl)cc1 (single isomer, unassigned; (-)) [listing 2 of 2 here] | > 1000 nM | 20 nM | – |
| 221 | O=C(NN1CCCCC1)c1nc(-c2ccc(Cl)cc2Cl)n(-c2ccc(Cl)cc2)c1CO | 7500 nM | 34 nM | – |
| – | Cc1c(C(=O)NN2CCCCC2)nn(-c2ccc(Cl)cc2Cl)c1-c1ccc(Cl)cc1 [RIMONABANT] | – | – | half-life [7]: 6 days |
| 31 | CCc1c(C(=O)NN2CCCCC2)nc(-c2ccc(Cl)cc2Cl)n1-c1ccc(Cl)cc1 | – | – | – |
| 14 | CSc1c(C(=O)NN2CCCCCC2)nn(-c2ccc(Cl)cc2Cl)c1-c1ccc(Cl)cc1 | 371 nM | 27 nM | – |

| Compound | Ratio IC50 [1] | Ki [2] | Ki [3] | also measured |
| --- | --- | --- | --- | --- |
| CSc1c(C(=O)NN2CCCC2)nn(-c2ccc(Cl)cc2Cl)c1-c1ccc(Cl)cc1 | 211 | 634 nM | 3 nM | logP [4]: 4.7; ED50 [5]: 1.9 mg/kg |
| C[S+]([O-])c1c(C(=O)NN2CCCCC2)nc(-c2ccc(Cl)cc2Cl)n1-c1ccc(Cl)cc1 (single isomer, unassigned; (-)) [listing 1 of 2 here] | > 50 | – | – | – |
| CSc1c(C(=O)NN2CCCCC2)nc(-c2ccc(Cl)cc2Cl)n1-c1ccc(Cl)cc1 | 88 | 1070 nM | 12.2 nM | Ratio [6]: 1.4; logP [4]: 4.8; ED50 [5]: 1.9 mg/kg |
| C[S+]([O-])c1c(C(=O)NN2CCCCC2)nc(-c2ccc(Cl)cc2Cl)n1-c1ccc(Cl)cc1 (stereo in doubt; 12) [listing 2 of 2 here] | > 20 | – | – | – |
| C[S+]([O-])c1c(C(=O)NN2CCCCC2)nc(-c2ccc(Cl)cc2Cl)n1-c1ccc(Cl)cc1 (single isomer, unassigned; (+)) [listing 2 of 2 here] | > 77 | – | – | – |
| CS(=O)(=O)c1c(C(=O)NN2CCCCC2)nc(-c2ccc(Cl)cc2Cl)n1-c1ccc(Cl)cc1 | > 840 | > 10000 nM | – | Ratio [6]: 6; logP [4]: 3.5; ED50 [5]: 29 mg/kg |
| C[S+]([O-])c1c(C(=O)NN2CCCCC2)nn(-c2ccc(Cl)cc2Cl)c1-c1ccc(Cl)cc1 (stereo not drawn) | 20 | 398 nM | 20 nM | Ratio [6]: 8; logP [4]: 3.7; ED50 [5]: > 30 mg/kg |
